# Laboratory results: patent publication US9586951B2 (FUJIFILM Corporation, priority 2013, dated 2017)
# Target: T1, ATM (Homo sapiens, UniProt Q13315)
# T1 construct: detecting phosphorylation of Chk2 in a human non-small cell lung cancer cell line NCI-H460 (ATCC company); host or cells: NCI-H460 human non-small cell lung cancer cells
# Experiment: ATM inhibition test (phosphorylation of Chk2 generated by ionizing radiation, AlphaScreen SureFire)
# Type: cell-based
# Conditions: phosphorylated Chk2 in NCI-H460 cells, ionizing radiation 8Gy, 1 hour after test compound treatment; read-out: ATM inhibitory activity
# Procedure, shortened: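 NCI-H460 cells treated with compound for 1 hour, then irradiated with 8Gy and incubated 1 hour at 37° C. Phospho-Chk2 measured by AlphaScreen SureFire. Inhibition ratio calculated relative to untreated irradiated and non-irradiated wells.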
# T1 sequence (Q13315 whole entry): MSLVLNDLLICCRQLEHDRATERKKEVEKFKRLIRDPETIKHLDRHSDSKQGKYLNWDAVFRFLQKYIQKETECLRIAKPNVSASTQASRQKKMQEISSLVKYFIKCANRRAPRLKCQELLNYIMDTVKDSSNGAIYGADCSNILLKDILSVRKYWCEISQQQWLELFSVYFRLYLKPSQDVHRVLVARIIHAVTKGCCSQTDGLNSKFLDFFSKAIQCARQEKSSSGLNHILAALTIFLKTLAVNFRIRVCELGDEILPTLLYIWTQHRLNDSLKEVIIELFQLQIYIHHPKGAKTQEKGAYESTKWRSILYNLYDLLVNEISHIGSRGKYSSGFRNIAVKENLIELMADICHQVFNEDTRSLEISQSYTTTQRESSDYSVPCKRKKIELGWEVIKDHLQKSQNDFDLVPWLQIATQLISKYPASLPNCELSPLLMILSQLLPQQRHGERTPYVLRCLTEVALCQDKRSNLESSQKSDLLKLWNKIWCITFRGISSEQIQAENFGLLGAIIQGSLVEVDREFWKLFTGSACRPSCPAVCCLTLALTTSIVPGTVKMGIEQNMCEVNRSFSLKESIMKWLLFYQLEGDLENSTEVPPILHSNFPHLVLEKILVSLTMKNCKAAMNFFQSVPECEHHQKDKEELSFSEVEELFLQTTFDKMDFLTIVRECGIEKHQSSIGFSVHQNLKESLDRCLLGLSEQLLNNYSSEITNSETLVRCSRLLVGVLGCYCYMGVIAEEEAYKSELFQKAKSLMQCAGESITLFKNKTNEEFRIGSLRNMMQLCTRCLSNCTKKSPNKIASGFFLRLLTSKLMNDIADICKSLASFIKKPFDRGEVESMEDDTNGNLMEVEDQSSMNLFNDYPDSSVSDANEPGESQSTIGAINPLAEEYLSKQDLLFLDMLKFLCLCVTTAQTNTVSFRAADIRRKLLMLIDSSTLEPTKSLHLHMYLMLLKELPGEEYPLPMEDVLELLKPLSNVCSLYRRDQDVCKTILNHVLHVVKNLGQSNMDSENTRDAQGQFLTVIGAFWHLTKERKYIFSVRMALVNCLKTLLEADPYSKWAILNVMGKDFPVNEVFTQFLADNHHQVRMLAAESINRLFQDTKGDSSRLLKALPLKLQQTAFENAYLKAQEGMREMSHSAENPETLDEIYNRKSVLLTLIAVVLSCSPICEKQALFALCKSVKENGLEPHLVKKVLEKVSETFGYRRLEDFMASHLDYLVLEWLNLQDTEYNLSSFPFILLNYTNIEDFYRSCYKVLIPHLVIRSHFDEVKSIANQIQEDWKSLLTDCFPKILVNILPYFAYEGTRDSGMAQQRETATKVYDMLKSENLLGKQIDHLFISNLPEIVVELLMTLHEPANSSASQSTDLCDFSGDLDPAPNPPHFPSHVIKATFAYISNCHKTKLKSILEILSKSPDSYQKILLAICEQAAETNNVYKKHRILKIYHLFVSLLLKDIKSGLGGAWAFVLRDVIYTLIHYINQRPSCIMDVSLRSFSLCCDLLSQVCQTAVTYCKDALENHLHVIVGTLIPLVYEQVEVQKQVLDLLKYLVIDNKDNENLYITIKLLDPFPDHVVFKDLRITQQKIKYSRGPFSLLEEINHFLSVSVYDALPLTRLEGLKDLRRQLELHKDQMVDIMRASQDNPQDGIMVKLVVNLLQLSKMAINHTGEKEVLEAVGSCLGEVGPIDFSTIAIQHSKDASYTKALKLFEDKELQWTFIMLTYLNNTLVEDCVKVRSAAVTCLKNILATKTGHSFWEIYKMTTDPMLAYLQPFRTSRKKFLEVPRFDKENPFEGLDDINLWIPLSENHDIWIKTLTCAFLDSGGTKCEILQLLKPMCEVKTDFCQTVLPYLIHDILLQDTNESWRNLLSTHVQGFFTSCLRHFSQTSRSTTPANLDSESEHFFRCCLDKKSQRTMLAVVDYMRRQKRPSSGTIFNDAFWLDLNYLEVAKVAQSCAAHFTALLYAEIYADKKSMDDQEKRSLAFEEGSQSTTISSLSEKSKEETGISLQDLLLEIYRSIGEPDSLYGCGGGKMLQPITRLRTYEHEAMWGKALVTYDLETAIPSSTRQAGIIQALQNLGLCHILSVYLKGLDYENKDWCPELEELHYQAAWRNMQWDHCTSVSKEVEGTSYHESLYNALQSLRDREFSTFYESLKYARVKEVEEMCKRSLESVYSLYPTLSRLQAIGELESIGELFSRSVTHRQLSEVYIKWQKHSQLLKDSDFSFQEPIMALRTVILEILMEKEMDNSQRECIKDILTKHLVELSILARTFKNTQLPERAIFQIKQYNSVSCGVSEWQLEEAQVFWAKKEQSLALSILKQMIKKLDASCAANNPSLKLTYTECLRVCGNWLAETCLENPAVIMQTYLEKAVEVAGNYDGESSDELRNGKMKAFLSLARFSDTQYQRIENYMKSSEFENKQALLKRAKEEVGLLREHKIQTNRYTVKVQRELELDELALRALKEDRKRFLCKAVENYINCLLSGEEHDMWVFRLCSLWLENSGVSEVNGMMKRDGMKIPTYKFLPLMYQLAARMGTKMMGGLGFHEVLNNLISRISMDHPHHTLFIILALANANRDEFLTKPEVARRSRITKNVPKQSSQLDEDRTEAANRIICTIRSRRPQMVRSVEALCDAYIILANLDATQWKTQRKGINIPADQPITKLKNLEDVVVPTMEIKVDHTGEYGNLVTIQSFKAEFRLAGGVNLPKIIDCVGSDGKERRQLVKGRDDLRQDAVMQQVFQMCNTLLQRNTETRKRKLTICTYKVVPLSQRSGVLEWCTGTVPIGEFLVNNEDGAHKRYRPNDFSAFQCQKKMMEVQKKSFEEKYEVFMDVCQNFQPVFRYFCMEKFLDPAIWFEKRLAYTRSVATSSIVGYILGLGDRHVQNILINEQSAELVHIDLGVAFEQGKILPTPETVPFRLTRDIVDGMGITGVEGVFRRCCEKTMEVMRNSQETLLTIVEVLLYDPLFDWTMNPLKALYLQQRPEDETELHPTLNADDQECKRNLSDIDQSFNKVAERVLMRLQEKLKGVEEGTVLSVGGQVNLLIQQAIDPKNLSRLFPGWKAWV
row,Compound,IC50
1,"Cc1cncc(C(CO)Nc2ccc3c(c2)Sc2cccc(-c4cc(N5CCOCC5)cc(=O)[nH]4)c2S3)c1 (stereo not drawn) [Example 1-12-66, 6-(7-((2-Hydroxy-1-(5-methylpyridin-3-yl)ethyl)amino)thianthren-1-yl)-4-morpholino pyridin-2(1H)-one]",100 to 500 nM
2,"O=c1cc(N2CCOCC2)cc(-c2cccc3c2Oc2ccc(NC4CCN(Cc5cnccn5)CC4)cc2C3)[nH]1 [Example 2-28-7, 4-Morpholino-6-(7-((1-(pyrazin-2-ylmethyl)piperidin-4-yl)amino)-9H-xanthen-4-yl)pyridin-2 (1H)-one]",500 to 2000 nM
3,"Cc1ccc(CNc2ccc3c(c2)Sc2cccc(-c4cc(N5CCOCC5)cc(=O)[nH]4)c2S3)s1 [Example 1-12-57, 6-(7-(((5-Methylthiophen-2-yl)methyl)amino)thianthren-1-yl)-4-morpholino pyridin-2 (1H)-one]",100 to 500 nM
4,"Cc1ccnc(CN2CCC(Nc3ccc4c(c3)Cc3cccc(-c5cc(N6CCOCC6)cc(=O)[nH]5)c3O4)CC2)c1 [Example 2-28-19, 6-(7-((1-((4-Methylpyridin-2-yl)methyl)piperidin-4-yl)amino)-9H-xanthen-4-yl)-4-morpholino pyridin-2(1H)-one]",100 to 500 nM
5,"O=c1cc(N2CCOCC2)cc(-c2cccc3c2Sc2ccc(NCc4cccnc4)cc2S3)[nH]1 [Example 1-12-25, 4-Morpholino-6-(7-((pyridin-3-ylmethyl)amino)thianthren-1-yl)pyridin-2 (1H)-one]",100 to 500 nM
6,"Cc1cccc(C(CO)Nc2ccc3c(c2)Cc2cccc(-c4cc(N5CCOCC5)cc(=O)[nH]4)c2O3)n1 (racemic) [Example 2-14-38, 6-(7-((2-Hydroxy-1-(6-methylpyridin-2-yl)ethyl)amino)-9H-xanthen-4-yl)-4-morpholino pyridin-2 (1H)-one]",100 to 500 nM
7,"Cc1cnc(C(CC(C)(C)O)Nc2ccc3c(c2)Sc2cccc(-c4cc(N5CCOCC5)cc(=O)[nH]4)c2S3)cn1 (stereo not drawn) [Example 1-12-117, 6-(7-((3-Hydroxy-3-methyl-1-(5-methylpyrazin-2-yl)butyl)amino)thianthren-1-yl)-4-morpholino pyridin-2(1H)-one]",100 to 500 nM
8,"CC(C)(C)OC(=O)N1CCC(Nc2ccc3c(c2)Cc2cccc(-c4cc(N5CCOCC5)cc(=O)[nH]4)c2O3)CC1 [Example 2-3-12, tert-Butyl 4-((5-(4-morpholino-6-oxo-1,6-dihydropyridin-2-yl)-9H-xanthen-2-yl)amino) piperidine-1-carboxylate]",100 to 500 nM
9,"O=c1cc(N2CCOCC2)cc(-c2cccc3c2Oc2ccc(NCc4cncc(-n5cccn5)c4)cc2C3)[nH]1 [Example 2-2-55, 6-(7-(((5-(1H-Pyrazol-1-yl)pyridin-3-yl)methyl)amino)-9H-xanthen-4-yl)-4-morpholino pyridin-2 (1H)-one]",100 to 500 nM
10,"CC(Nc1ccc2c(c1)Sc1cccc(-c3cc(N4CCOCC4)cc(=O)[nH]3)c1S2)c1nccs1 (stereo not drawn) [Example 1-12-67, 4-Morpholino-6-(7-((1-(thiazol-2-yl)ethyl)amino)thianthren-1-yl)pyridin-2 (1H)-one]",100 to 500 nM
11,"CC(Nc1ccc2c(c1)Cc1cccc(-c3cc(N4CCOCC4)cc(=O)[nH]3)c1O2)c1ccncn1 (stereo not drawn) [Example 2-14-50, 4-Morpholino-6-(7-((1-(pyrimidin-4-yl)ethyl)amino)-9H-xanthen-4-yl) pyridin-2(1H)-one]",500 to 2000 nM
12,"CCC(C(=O)Nc1ccc2c(c1)Sc1cccc(-c3cc(N4CCOCC4)cc(=O)[nH]3)c1S2)N1CCCC1 (stereo not drawn) [Example 1-6-1, N-(6-(4-morpholino-6-oxo-1,6-dihydropyridin-2-yl)thianthren-2-yl)-2-(pyrrolidin-1-yl)butanamide]",100 to 500 nM
13,"3-((6-(4-Morpholino-6-oxo- 1,6-dihydropyridin-2-yl) thianthren-2-yl)amino) indolin-2-one [Example 1-12-37]",100 to 500 nM
14,"CC(CN1CCC1)Nc1ccc2c(c1)Sc1cccc(-c3cc(N4CCOCC4)cc(=O)[nH]3)c1S2 (stereo not drawn) [Example 1-43-1, 6-(7-((1-(azetidin-1-yl)propan-2-yl)amino)thianthren-1-yl)-4-morpholinopyridin-2(1H)-one]",100 to 500 nM
15,"Cc1ccccc1CCN1CCC(Nc2ccc3c(c2)Cc2cccc(-c4cc(N5CCOCC5)cc(=O)[nH]4)c2O3)CC1 [Example 2-30-4, 6-(7-((1-(2-Methylphenethyl)piperidin-4-yl)amino)-9H-xanthen-4-yl)-4-morpholino pyridin-2 (1H)-one]",100 to 500 nM
16,"Cc1csc(CNc2ccc3c(c2)Sc2cccc(-c4cc(N5CCOCC5)cc(=O)[nH]4)c2S3)c1 [Example 1-12-58, 6-(7-(((4-Methylthiophen-2-yl)methyl)amino)thianthren-1-yl)-4-morpholino pyridin-2 (1H)-one]",100 to 500 nM
17,"COc1cncc(C(C)Nc2ccc3c(c2)Cc2cccc(-c4nc(N5CCOCC5)cc(=O)[nH]4)c2O3)c1 (stereo not drawn) [Example 2-52-4, 2-(7-((1-(5-Methoxypyridin-3-yl)ethyl)amino)-9H-xanthen-4-yl)-6-morpholinopyrimidine-4(3H)-one]",100 to 500 nM

row,Compound,IC50
1,"COc1cccnc1CNc1ccc2c(c1)Cc1ccnc(-c3cc(N4CCOCC4)cc(=O)[nH]3)c1O2 [Example 2-41-12, 6-(7-(((3-Methoxypyridin-2-yl)methyl)amino)-5H-chromeno [2,3-c]pyridin-1-yl)-4-morpholino pyridin-2(1H)-one]",500 to 2000 nM
2,"CC(CN1C2CCC1COC2)Nc1ccc2c(c1)Sc1cccc(-c3cc(N4CCOCC4)cc(=O)[nH]3)c1S2 (stereo not drawn) [Example 1-13-5, 6-(7-((1-(3-Oxa-8-azabicyclo [3.2.1]octan-8-yl)propan-2-yl)amino)thianthren-1-yl)-4-morpholino pyridin-2(1H)-one]",100 to 500 nM
3,"Cc1ccnc(C(CF)Nc2ccc3c(c2)Cc2cccc(-c4cc(N5CCOCC5)cc(=O)[nH]4)c2O3)n1 (stereo not drawn) [Example 2-14-81, 6-(7-((2-Fluoro-1-(4-methylpyrimidin-2-yl)ethyl)amino)-9H-xanthen-4-yl)-4-morpholino pyridin-2(1H)-one]",100 to 500 nM
4,"O=c1cc(N2CCOCC2)cc(-c2cccc3c2Oc2ccc(NCc4cncc(-n5ccnc5)c4)cc2C3)[nH]1 [Example 2-2-56, 6-(7-(((5-(1H-Imidazol-1-yl)pyridin-3-yl)methyl)amino)-9H-xanthen-4-yl)-4-morpholino pyridin-2 (1H)-one]",100 to 500 nM
5,"COCCN1CCC(Nc2ccc3c(c2)Cc2cccc(-c4cc(N5CCOCC5)cc(=O)[nH]4)c2O3)CC1 [Example 2-29, 6-(7-((1-(2-Methoxyethyl)piperidin-4-yl)amino)-9H-xanthen-4-yl)-4-morpholinopyridin-2(1H)-one]",500 to 2000 nM
6,"CCNc1cncc(CNc2ccc3c(c2)Cc2cccc(-c4cc(N5CCOCC5)cc(=O)[nH]4)c2O3)c1 [Example 2-6-1, 6-(7-(((5-(ethylamino)pyridin-3-yl)methyl)amino)-9H-xanthen-4-yl)-4-morpholinopyridin-2(1H)-one]",100 to 500 nM
7,"COCCNCC(Nc1ccc2c(c1)Sc1cccc(-c3cc(N4CCOCC4)cc(=O)[nH]3)c1S2)c1cccc(C)n1 (stereo not drawn) [Example 1-34-2, 6-(7-((2-((2-Methoxyethyl)amino)-1-(6-methylpyridin-2-yl)ethyl)amino)thianthren-1-yl)-4-morpholino pyridin-2 (1H)-one]",100 to 500 nM
8,"O=c1cc(N2CCOCC2)cc(-c2nccc3c2Oc2ccc(NCc4cncc(C5CC5)c4)cc2C3)[nH]1 [Example 2-41-11, 6-(7-(((5-Cyclopropylpyridin-3-yl)methyl)amino)-5H-chromeno[2,3-c]pyridin-1-yl)-4-morpholino pyridin-2(1H)-one]",100 to 500 nM
9,"Cc1nccc(C(C)Nc2ccc3c(c2)Sc2cccc(-c4cc(N5CCOCC5)cc(=O)[nH]4)c2S3)n1 (stereo not drawn) [Example 1-12-80, 6-(7-((1-(2-Methylpyrimidin-4-yl)ethyl)amino)thianthren-1-yl)-4-morpholino pyridin-2(1H)-one]",100 to 500 nM
10,"CC(CN1CCN(Cc2ccncc2)CC1)Nc1ccc2c(c1)Sc1cccc(-c3cc(N4CCOCC4)cc(=O)[nH]3)c1S2 (stereo not drawn) [Example 1-15-4, 4-Morpholino-6-(7-((1-(4-(pyridin-4-ylmethyl)piperazin-1-yl)propan-2-yl)amino)thianthren-1-yl)pyridin-2(1H)-one]",100 to 500 nM
11,"O=c1cc(N2CCOCC2)cc(-c2cccc3c2Oc2ccc(NCc4cnccc4Cl)cc2C3)[nH]1 [Example 2-14-4, 6-(7-(((4-Chloropyridin-3-yl)methyl)amino)-9H-xanthen-4-yl)-4-morpholino pyridin-2(1H)-one]",100 to 500 nM
12,"O=c1cc(N2CCOCC2)cc(-c2cccc3c2Sc2ccc(NCCCCN4CCOCC4)cc2S3)[nH]1 [Example 1-9-4, 4-Morpholino-6-(7-((4-morpholinobutyl)amino)thianthren-1-yl)pyridin-2(1H)-one]",100 to 500 nM
13,"O=C(CN1CCCOCC1)Nc1ccc2c(c1)Sc1cccc(-c3cc(N4CCOCC4)cc(=O)[nH]3)c1S2 [Example 1-7-3, N-(6-(4-morpholino-6-oxo-1,6-dihydropyridin-2-yl)thianthren-2-yl)-2-(1,4-oxazepan-4-yl)acetamide]",500 to 2000 nM
14,"Nc1ccc2c(c1)Cc1ccc(F)c(-c3cc(N4CCOCC4)cc(=O)[nH]3)c1O2 [Example 2-45, 6-(7-Amino-3-fluoro-9H-xanthen-4-yl)-4-morpholinopyridin-2(1H)-one]",100 to 500 nM
15,"CC(CN1CCN(Cc2ccccn2)CC1)Nc1ccc2c(c1)Sc1cccc(-c3cc(N4CCOCC4)cc(=O)[nH]3)c1S2 (stereo not drawn) [Example 1-15-2, 4-Morpholino-6-(7-((1-(4-(pyridin-2-ylmethyl)piperazin-1-yl)propan-2-yl)amino)thianthren-1-yl)pyridin-2(1H)-one]",100 to 500 nM
16,"O=c1cc(N2CCOCC2)cc(-c2cccc3c2Sc2ccc(NCc4ncccn4)cc2C3)[nH]1 [Example 3-8-6, 4-Morpholino-6-(7-((pyrimidin-2-ylmethyl)amino)-9H-thioxanthen-4-yl) pyridin-2(1H)-one]",100 to 500 nM
